18 compounds from patent US9376442B2, “Methylpyrrolopyrimidinecarboxamides” (Takeda GmbH, priority 2009, dated 2016) can be followed below.

One assay addresses T1, PDE5A1 (Homo sapiens, UniProt O76074).
T1 construct: from tissue; host or cells: human platelets from fresh donor blood (10,000 x g supernatant of sonicated lysate)
Briefly: Inhibition of type 5 phosphodiesterase (PDE5) activity, modified SPA test with human platelet lysate. The class given is biochemical. The conditions noted are these: 0.5 μM cGMP, read-out: PDE5A1 inhibitory values [measured as −log IC50 (mol/l)] (converted). The gist of the method:
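Scintillation proximity assay with [3H]cGMP tracer at 0.5 μM total cGMP, stopped after 15 min with beads containing IBMX. PDE3 and PDE2 activities suppressed with motapizone (1 μM) and a PDE2 inhibitor (10 nM). Human platelet supernatant served as the enzyme, with compound preincubated 5 min at 37° C; IC50 values from concentration-effect curves.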

A further assay concerns the target T2, PDE4B1 (Homo sapiens, UniProt Q07343).
T2 construct: made in house; host or cells: SF21 insect cells (baculovirus; pCRBac vector), 1000 x g supernatant of homogenate
In words: Inhibition of type 4 phosphodiesterase (PDE4) activity, modified SPA test with recombinant PDE4B1 expressed in SF21 insect cells. The class given is biochemical. Particulars: recombinant PDE4B1, 0.5 μM cAMP, read-out: PDE4B1 inhibitory values [measured as −log IC50 (mol/l)] (converted). The protocol: Method for Measuring Inhibition of the Type 4 Phosphodiesterase (PDE4) Activity:
The PDE4B1 (GB no. L20966) was a gift of Prof. M. Conti (Stanford University, USA). It was amplified from the original plasmid (pCMV5) via PCR with primers Rb18 (5′-[…]-3′) and Rb10 (5′-[…]-3′) and cloned into the pCRBac vector (Invitrogen, Groningen, NL).
The recombinant baculovirus was prepared by means of homologous recombination in SF9 insect cells. The expression plasmids were cotransfected with Baculo-Gold DNA (Pharmingen, Hamburg) using a standard protocol (Pharmingen, Hamburg). Wt virus-free recombinant virus supernatants were selected using plaque assay methods. After that, high-titre virus supernatants were prepared by amplifying 3 times. PDE4B1 was expressed in SF21 cells by infecting 2×10^6 cells/ml with an MOI (multiplicity of infection) between 1 and 10 in the serum-free medium Insect Express Sf9-S2 (PAA, Pasching, Austria). The cells were cultured at 28° C. for 48-72 hours, after which they were pelleted for 5-10 min at 1000×g and 4° C.
The SF21 insect cells were resuspended, at a concentration of approx. 10^7 cells/ml, in ice-cold (4° C.) homogenization buffer (20 mM Tris, pH 8.2, containing the following additions: 140 mM NaCl, 3.8 mM KCl, 1 mM EGTA, 1 mM MgCl2, 10 mM (3-mercaptoethanol, 2 mM benzamidine, 0.4 mM Pefablock, 10 μM leupeptin, 10 μM pepstatin A, 5 μM trypsin inhibitor) and disrupted by ultrasonication. The homogenate was then centrifuged for 10 min at 1000×g and the supernatant was stored at −80° C. until subsequent use (see below). The protein content was determined by the Bradford method (BioRad, Munich) using BSA as the standard.
PDE4B1 activity was inhibited by the compounds according to the present subject matter in a modified SPA (scintillation proximity assay) test, supplied by Amersham Biosciences (see procedural instructions “phosphodiesterase [3H]cAMP SPA enzyme assay, code TRKQ 7090”), carried out in 96-well microtitre plates (MTP's). The test volume is 100 μl and contains 20 mM Tris buffer (pH 7.4), 0.1 mg/ml of BSA, 5 mM Mg^2+, 0.5 μM cAMP (including about 50,000 cpm of [3H]cAMP), 1 μl of the respective substance dilution in DMSO and sufficient recombinant PDE (1000×g supernatant, see above) to ensure that 10-20% of the cAMP is converted under the said experimental conditions. […] After a preincubation of 5 min at 37° C., the reaction is started by adding the substrate (cAMP) and the assays are incubated for a further 15 min; after that, they are stopped by adding SPA beads (50 μl). In accordance with the manufacturer's instructions, the SPA beads had previously been resuspended in water, but were then diluted 1:3 (v/v) in water; the diluted solution also contains 3 mM IBMX to ensure a complete PDE activity stop. After the beads have been sedimented (>30 min), the MTP's are analyzed in commercially available luminescence detection devices. The corresponding IC50 values of the compounds for the inhibition of PDE4B1 activity are determined from the concentration-effect curves by means of non-linear regression.

T2 sequence (Q07343 whole entry): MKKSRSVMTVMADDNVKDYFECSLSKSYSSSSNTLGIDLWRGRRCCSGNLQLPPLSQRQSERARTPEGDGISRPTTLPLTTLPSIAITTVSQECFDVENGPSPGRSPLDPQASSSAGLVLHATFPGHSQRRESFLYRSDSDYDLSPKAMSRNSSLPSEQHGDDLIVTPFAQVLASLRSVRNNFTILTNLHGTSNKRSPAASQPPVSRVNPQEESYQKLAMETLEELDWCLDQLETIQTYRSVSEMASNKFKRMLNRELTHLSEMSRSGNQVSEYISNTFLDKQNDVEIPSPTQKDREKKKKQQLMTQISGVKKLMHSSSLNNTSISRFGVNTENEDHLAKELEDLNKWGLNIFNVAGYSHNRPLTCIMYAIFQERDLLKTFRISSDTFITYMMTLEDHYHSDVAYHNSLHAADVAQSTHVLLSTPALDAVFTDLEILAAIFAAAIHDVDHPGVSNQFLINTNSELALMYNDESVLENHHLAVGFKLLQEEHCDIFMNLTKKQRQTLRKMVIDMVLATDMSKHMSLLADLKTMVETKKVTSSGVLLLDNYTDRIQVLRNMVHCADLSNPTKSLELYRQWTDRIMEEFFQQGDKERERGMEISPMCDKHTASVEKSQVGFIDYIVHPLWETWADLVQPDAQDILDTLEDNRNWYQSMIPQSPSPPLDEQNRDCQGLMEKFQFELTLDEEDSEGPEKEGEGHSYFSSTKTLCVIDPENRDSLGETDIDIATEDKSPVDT

Take `COCC(=O)N[C@H]1CC[C@H](NC(=O)c2c(C)[nH]c3c(-c4cc(F)ccc4OCC4CC4)ncnc23)CC1` [Example E43, 4-[2-(Cyclopropylmethoxy)-5-fluorophenyl]-N-{trans-4-[(methoxyacetyl)amino]cyclohexyl}-6-methyl-5H-pyrrolo[3,2-d]pyrimidine-7-carboxamide]: the IC50 was under 1 nM at PDE5A1 and under 100 nM on PDE4B1.
For `CCOC(=O)N[C@H]1CC[C@H](NC(=O)c2c(C)[nH]c3c(-c4cc(F)ccc4OCC4CC4)ncnc23)CC1` [Example E44, Ethyl {trans-4-[({4-[2-(cyclopropylmethoxy)-5-fluorophenyl]-6-methyl-5H-pyrrolo[3,2-d]pyrimidin-7-yl}carbonyl)amino]cyclohexyl}carbamate], the IC50 at PDE5A1 was under 1 nM; at PDE4B1, under 100 nM.
`CC(=O)N[C@H]1CC[C@@H](NC(=O)c2c(C)[nH]c3c(-c4cc(F)ccc4OCC4CC4)ncnc23)CC1` [Example E45, N-(cis-4-acetamidocyclohexyl)-4-[2-(cyclopropylmethoxy)-5-fluorophenyl]-6-methyl-5H-pyrrolo[3,2-d]pyrimidine-7-carboxamide]: the IC50 at PDE5A1 is 1 to 10 nM; at PDE4B1, 100 to 1000 nM.
For `COc1ccc(OCC2CC2)c(-c2ncnc3c(C(=O)NC4CCN(C(C)=O)CC4)c(C)[nH]c23)c1` [Example E66, N-(1-acetylpiperidin-4-yl)-4-[2-(cyclopropylmethoxy)-5-methoxyphenyl]-6-methyl-5H-pyrrolo[3,2-d]pyrimidine-7-carboxamide] the same measures were under 1 nM and 100 to 1000 nM.
Take `CCC(=O)N1CCC(NC(=O)c2c(C)[nH]c3c(-c4cc(OC)ccc4OCC4CC4)ncnc23)CC1` [Example E67, 4-[2-(Cyclopropylmethoxy)-5-methoxyphenyl]-6-methyl-N-(1-propionylpiperidin-4-yl)-5H-pyrrolo[3,2-d]pyrimidine-7-carboxamide]: the IC50 at PDE5A1 is under 1 nM; at PDE4B1 it was 100 to 1000 nM.
For `COCC(=O)N1CCC(NC(=O)c2c(C)[nH]c3c(-c4cc(OC)ccc4OCC4CC4)ncnc23)CC1` [Example E68, 4-[2-(Cyclopropylmethoxy)-5-methoxyphenyl]-N-[1-(methoxyacetyl)piperidin-4-yl]-6-methyl-5H-pyrrolo[3,2-d]pyrimidine-7-carboxamide], in that order: under 1 nM and 100 to 1000 nM.
For `COc1ccc(OCC2CC2)c(-c2ncnc3c(C(=O)N[C@H]4CC[C@H](NC(C)=O)CC4)c(C)[nH]c23)c1` [Example E69, N-(trans-4-acetamidocyclohexyl)-4-[2-(cyclopropylmethoxy)-5-methoxyphenyl]-6-methyl-5H-pyrrolo[3,2-d]pyrimidine-7-carboxamide], the results for the IC50 on PDE5A1 and on PDE4B1 were under 1 nM and 100 to 1000 nM, respectively.
As to `CCC(=O)N[C@H]1CC[C@H](NC(=O)c2c(C)[nH]c3c(-c4cc(OC)ccc4OCC4CC4)ncnc23)CC1` [Example E70, 4-[2-(Cyclopropylmethoxy)-5-methoxyphenyl]-6-methyl-N-[trans-4-(propionylamino)cyclohexyl]-5H-pyrrolo[3,2-d]pyrimidine-7-carboxamide], the figures for the IC50 at PDE5A1 and at PDE4B1 were under 1 nM and 100 to 1000 nM, respectively.
For `COCC(=O)N[C@H]1CC[C@H](NC(=O)c2c(C)[nH]c3c(-c4cc(OC)ccc4OCC4CC4)ncnc23)CC1` [Example E71, 4-[2-(Cyclopropylmethoxy)-5-methoxyphenyl]-N-{trans-4-[(methoxyacetyl)amino]cyclohexyl}-6-methyl-5H-pyrrolo[3,2-d]pyrimidine-7-carboxamide] the same measures were under 1 nM and 100 to 1000 nM.
For `COc1ccc(OCC2CC2)c(-c2ncnc3c(C(=O)N[C@H]4CC[C@@H](NC(C)=O)CC4)c(C)[nH]c23)c1` [Example E72, N-(cis-4-acetamidocyclohexyl)-4-[2-(cyclopropylmethoxy)-5-methoxyphenyl]-6-methyl-5H-pyrrolo[3,2-d]pyrimidine-7-carboxamide], in that order: under 1 nM and 100 to 1000 nM.
For `CCC(=O)N[C@H]1CC[C@@H](NC(=O)c2c(C)[nH]c3c(-c4cc(OC)ccc4OCC4CC4)ncnc23)CC1` [Example E73, 4-[2-(Cyclopropylmethoxy)-5-methoxyphenyl]-6-methyl-N-[cis-4-(propionylamino)cyclohexyl]-5H-pyrrolo[3,2-d]pyrimidine-7-carboxamide], in that order: under 1 nM and 100 to 1000 nM.
`COCC(=O)N[C@H]1CC[C@@H](NC(=O)c2c(C)[nH]c3c(-c4cc(OC)ccc4OCC4CC4)ncnc23)CC1` [Example E74, 4-[2-(Cyclopropylmethoxy)-5-methoxyphenyl]-N-{cis-4-[(methoxyacetyl)amino]cyclohexyl}-6-methyl-5H-pyrrolo[3,2-d]pyrimidine-7-carboxamide]: the IC50 was under 1 nM on PDE5A1 and 100 to 1000 nM at PDE4B1.
Take `CC(=O)N1CCC(NC(=O)c2c(C)[nH]c3c(-c4cc(C)ccc4OCC4CC4)ncnc23)CC1` [Example E81, N-(1-Acetylpiperidin-4-yl)-4-[2-(cyclopropylmethoxy)-5-methylphenyl]-6-methyl-5H-pyrrolo[3,2-d]pyrimidine-7-carboxamide]: the IC50 is under 1 nM at PDE5A1 and under 100 nM on PDE4B1.
Turning to `CCC(=O)N1CCC(NC(=O)c2c(C)[nH]c3c(-c4cc(C)ccc4OCC4CC4)ncnc23)CC1` [Example E82, 4-[2-(Cyclopropylmethoxy)-5-methylphenyl]-6-methyl-N-(1-propanoylpiperidin-4-yl)-5H-pyrrolo[3,2-d]pyrimidine-7-carboxamide], the results for the IC50 on PDE5A1 and at PDE4B1 were under 1 nM and under 100 nM, respectively.
For `COCC(=O)N1CCC(NC(=O)c2c(C)[nH]c3c(-c4cc(C)ccc4OCC4CC4)ncnc23)CC1` [Example E83, 4-[2-(cyclopropylmethoxy)-5-methylphenyl]-N-[1-(methoxyacetyl)piperidin-4-yl]-6-methyl-5H-pyrrolo[3,2-d]pyrimidine-7-carboxamide], in that order: under 1 nM and under 100 nM.
On to `CC(=O)N[C@H]1CC[C@H](NC(=O)c2c(C)[nH]c3c(-c4cc(C)ccc4OCC4CC4)ncnc23)CC1` [Example E84, N-[trans-4-(acetylamino)cyclohexyl]-4-[2-(cyclopropylmethoxy)-5-methylphenyl]-6-methyl-5H-pyrrolo[3,2-d]pyrimidine-7-carboxamide], for which the figures for the IC50 on PDE5A1 and at PDE4B1 were under 1 nM and under 100 nM, respectively.
Take `CCC(=O)N[C@H]1CC[C@H](NC(=O)c2c(C)[nH]c3c(-c4cc(C)ccc4OCC4CC4)ncnc23)CC1` [Example E85, 4-[2-(Cyclopropylmethoxy)-5-methylphenyl]-6-methyl-N-[trans-4-(propanoylamino)cyclohexyl]-5H-pyrrolo[3,2-d]pyrimidine-7-carboxamide]: the figures for the IC50 on PDE5A1 and at PDE4B1 were under 1 nM and under 100 nM, respectively.
For `COCC(=O)N[C@H]1CC[C@H](NC(=O)c2c(C)[nH]c3c(-c4cc(C)ccc4OCC4CC4)ncnc23)CC1` [Example E86, 4-[2-(Cyclopropylmethoxy)-5-methylphenyl]-N-{trans-4-[(methoxyacetyl)amino]cyclohexyl}-6-methyl-5H-pyrrolo[3,2-d]pyrimidine-7-carboxamide] the same measures were under 1 nM and under 100 nM.
